Assay results from ChEMBL document CHEMBL4177610, “Discovery of a novel 2,4-dimethylquinoline-6-carboxamide M4 positive allosteric modulator (PAM) chemotype via scaffold hopping” (Bioorg Med Chem Lett, 2017).
Activity calls are given as the source filed them. No cut-off for these calls is given here.

How the values were obtained:
[1] = target: T1, Muscarinic acetylcholine receptor M4 (Rattus norvegicus, UniProt P08485); assay: (§1) Positive allosteric modulation of rat M4 receptor expressed in CHO cells co-expressing Gqi5 assessed as increase in acetylcholine-induced calcium mobilization; format: functional, cell-based
T1 sequence (P08485 whole entry): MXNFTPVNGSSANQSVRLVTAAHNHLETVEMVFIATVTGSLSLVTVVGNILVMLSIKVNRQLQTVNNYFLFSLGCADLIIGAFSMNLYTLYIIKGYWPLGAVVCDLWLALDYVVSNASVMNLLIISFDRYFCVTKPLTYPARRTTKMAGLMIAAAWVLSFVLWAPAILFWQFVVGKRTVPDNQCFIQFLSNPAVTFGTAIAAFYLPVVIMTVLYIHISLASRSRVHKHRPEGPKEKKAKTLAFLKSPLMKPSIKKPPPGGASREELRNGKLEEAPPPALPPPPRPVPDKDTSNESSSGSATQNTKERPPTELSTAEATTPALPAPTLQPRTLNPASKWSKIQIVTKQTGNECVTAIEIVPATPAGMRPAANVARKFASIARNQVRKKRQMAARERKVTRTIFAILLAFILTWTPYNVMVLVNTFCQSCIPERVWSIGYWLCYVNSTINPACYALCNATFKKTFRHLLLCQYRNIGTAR

[2] = Intrinsic clearance in rat liver microsomes; format: ADME, microsome; conditions: read-out: CLH
[3] = Fraction unbound in rat plasma; format: ADME, cell-free
[4] = Brain to plasma partition coefficient, Kp of the compound in Sprague-Dawley rat at 0.2 mg/kg, iv measured after 0.25 hrs; format: ADME, organism-based; conditions: brain and plasma
[5] = target: T2, Muscarinic acetylcholine receptor M4 (Rattus norvegicus) (UniProt P08485); assay: Positive allosteric modulation of rat M4 receptor expressed in CHO cells co-expressing Gqi5 assessed as increase in acetylcholine-induced calcium mobilization relative to acetylcholine; format: functional, cell-based
T2 sequence (whole entry): T1 sequence (P08485 whole entry)

[6] = Ratio of unbound brain to plasma concentration in Sprague-Dawley rat at 0.2 mg/kg, iv measured after 0.25 hrs; format: ADME, organism-based; conditions: brain and plasma, read-out: K(p,uu,brain)
[7] = Fraction unbound in rat brain; format: ADME, tissue-based
[8] = Intrinsic clearance in human liver microsomes; format: ADME, microsome; conditions: read-out: CLH
[9] = Fraction unbound in human plasma; format: ADME, cell-free
[10] = target: T2, Muscarinic acetylcholine receptor M4 (Rattus norvegicus); assay: as §1; format: functional, cell-based

Row | EC50 ([1]; read-out: EC50) [nM] | %max [5] [%] | Structure (SMILES) | further results
1 | 225 | – | COc1ccc(CNC(=O)c2sc3nnc(C)c(C)c3c2N)cc1F | –
2 | 307 | 57 | Cc1cc(C)c2cc(C(=O)NC3CN(c4cc(Cl)ncc4Cl)C3)ccc2n1 | CLint scaled [2]: 295 mL/min/kg; fraction unbound [3]: 0.002; Kp at 0.25 h [4]: 0.1; Kp uu at 0.25 h [6]: 0.3; fraction unbound [7]: 0.006; CLint scaled [8]: 160 mL/min/kg; fraction unbound [9]: 0.002
3 | 401 | 72 | Cc1cc(C)c2cc(C(=O)NC3CN(c4ncc(F)cc4Cl)C3)ccc2n1 | –
4 | 1070 | 82 | Cc1cc(C)c2cc(C(=O)NC3CN(c4cnc(C5CC5)cn4)C3)ccc2n1 | –
5 | 225 | – | COc1ccc(C)c2sc(NC(=O)c3ccncc3)nc12 | –
6 | 332 | 82 | Cc1cc(C)c2cc(C(=O)NC3CN(c4ccnc(F)c4F)C3)ccc2n1 | CLint scaled [2]: 232 mL/min/kg; fraction unbound [3]: 0.013; Kp at 0.25 h [4]: 0.17; Kp uu at 0.25 h [6]: 0.3; fraction unbound [7]: 0.023; CLint scaled [8]: 129 mL/min/kg; fraction unbound [9]: 0.009
7 | 383 | 62 | COc1cc(N2CC(NC(=O)c3ccc4nc(C)cc(C)c4c3)C2)c(Cl)cn1 | CLint scaled [2]: 178 mL/min/kg; fraction unbound [3]: 0.002; Kp at 0.25 h [4]: 0.84; Kp uu at 0.25 h [6]: 3.36; fraction unbound [7]: 0.008; CLint scaled [8]: 106 mL/min/kg; fraction unbound [9]: 0.002
8 | 6140 | 73 | Cc1cc(C)c2cc(C(=O)NC3CN(c4ncc(OC(C)C)cn4)C3)ccc2n1 | –
9 | – | 43 | Cc1cc(C)c2cc(C(=O)NC3CN(c4ccc(OC(F)F)nc4)C3)ccc2n1 | pEC50 [10]: inactive; EC50 ([1]; cho): Not Active
10 | 440 | 77 | Cc1cc(C)c2cc(C(=O)NC3CN(c4cccc(Cl)n4)C3)ccc2n1 | –
11 | 453 | 82 | Cc1cc(C)c2cc(C(=O)NC3CN(c4ncc(Cl)cc4F)C3)ccc2n1 | –
12 | 1160 | 75 | Cc1cc(C)c2cc(C(=O)NC3CN(c4cnc(C(F)(F)F)cn4)C3)ccc2n1 | –
13 | 935 | 82 | Cc1cc(C)c2cc(C(=O)NC3CN(c4ncccc4Cl)C3)ccc2n1 | –
14 | 1060 | 71 | Cc1cc(N2CC(NC(=O)c3ccc4nc(C)cc(C)c4c3)C2)cc(OC(F)F)n1 | –
15 | 449 | 85 | Cc1cc(C)c2cc(C(=O)NC3CN(c4ccc(C(F)(F)F)nc4)C3)ccc2n1 | CLint scaled [2]: 94 mL/min/kg; fraction unbound [3]: 0.004; Kp at 0.25 h [4]: 0.05; Kp uu at 0.25 h [6]: 0.2; fraction unbound [7]: 0.016; CLint scaled [8]: 36 mL/min/kg; fraction unbound [9]: 0.005
16 | – | 18.3 | Cc1cc(C)c2cc(C(=O)N3CCCC3)ccc2n1 | pEC50 [10]: inactive; EC50 ([1]; cho): Not Active
17 | > 10000 | 61 | Cc1cc(C)c2cc(C(=O)NC3CN(c4ncc(F)cn4)C3)ccc2n1 | –
18 | > 10000 | 63 | COc1ccc(CNC(=O)c2ccc3nc(C)cc(C)c3c2)cc1F | –
19 | 3910 | 66 | Cc1cc(C)c2cc(C(=O)NC3CN(c4ncc(C(F)(F)F)cn4)C3)ccc2n1 | –
20 | 587 | 70 | Cc1cc(C)c2cc(C(=O)NC3CN(c4ncc(Cl)cc4Cl)C3)ccc2n1 | –
21 | 820 | 61 | Cc1cc(C)c2cc(C(=O)NC3CN(c4ccnc(C(F)(F)F)c4)C3)ccc2n1 | –
22 | 856 | 55 | Cc1cc(C)c2cc(C(=O)NC3CN(c4ccc(F)c(F)c4)C3)ccc2n1 | –
23 | 225 | 44 | Cc1cc(C)c2cc(C(=O)NC3CN(c4cc(Cl)nc(Cl)c4)C3)ccc2n1 | –
24 | 967 | 84 | Cc1cc(C)c2cc(C(=O)NC3CN(c4ccc(Cl)cn4)C3)ccc2n1 | –
25 | 1130 | 86 | Cc1cc(C)c2cc(C(=O)NC3CN(c4ccnc(OC(F)F)c4)C3)ccc2n1 | –
26 | 225 | – | Cc1ccc(OC2CCN(c3ncnc4ccc(F)cc34)CC2)cn1 | –
27 | 1080 | 77 | Cc1cc(C)c2cc(C(=O)NC3CN(c4ccc(C(F)(F)F)cn4)C3)ccc2n1 | –

Row | Structure (SMILES) | EC50 ([1]; read-out: EC50) [nM] | %max [5] [%] | further results
28 | COc1nc2sc(C(=O)NC3CC3)c(N)c2c(C)c1Cl | 225 | – | –
